Literature values in patent US20220265629A1, “TREATMENT OF SYSTOLIC DYSFUNCTION AND HEART FAILURE WITH REDUCED EJECTION FRACTION WITH THE COMPOUND (R)-4-(1-((3-(DIFLUOROMETHYL)-1-METHYL-1H-PYRAZOL-4-YL)SULFONYL)-1-FLUOROETHYL)-N-(ISOXAZOL-3-YL)PIPERIDINE-1-CARBOXAMIDE” (MyoKardia, Inc., priority 2019, published 2022).

Tests used:
HFrEF = conditions: Teerlink et al.; cited from earlier work
healthy volunteers = conditions: correlated with increase in SET; cited from earlier work

COC(=O)N1CCN(Cc2cccc(NC(=O)Nc3ccc(C)nc3)c2F)CC1 [omecamtiv mecarbil]
troponin (HFrEF): Mild troponin elevation
ischemia at high doses (healthy volunteers): resulted in ischemia
